In one assay the test system is BaF3. Briefly: Induction of apoptosis in KIF5B-RET fusion protein expressing mouse BaF3 cells implanted in BALB/c mouse assessed as increase in cleaved PARP level at 30 to 50 mg/kg, iv administered once daily for 7 days measured 4 hrs post last dose by Western blot analysis. The assay is classed as functional, organism-based. To be noted: dose 30-50 mg/kg, time 7.0 day. For orientation: Immunoblotting shows a protein as a band on a membrane.

Assay [1] deals with Kinesin-1 heavy chain/ Tyrosine-protein kinase receptor RET (Homo sapiens), P07949+P33176 [V804M]. Briefly: Inhibition of KIF5B-RET V804M mutant fusion protein (unknown origin) expressed in mouse BaF3 cells assessed as reduction in cell proliferation measured after 48 hrs by MTS assay. It counts as cell-based. On the technique in general: Tetrazolium assays rely on reduction of a dye to a coloured formazan, in cell work by metabolically active cells.

The subject of assay [2] is Proto-oncogene tyrosine-protein kinase receptor Ret (Homo sapiens), P07949 [V804M]. Briefly: Binding affinity to wild-type human partial length RET V804M mutant (E713 to D1014 residues) expressed in bacterial expression system assessed as residual binding level at 1 uM by kinomescan method relative to control.

One may read the GI50 as the concentration that inhibits growth by half.

Activity calls are given as the source filed them. The rule behind the calls is not given here.

Sequence of Proto-oncogene tyrosine-protein kinase receptor Ret (Homo sapiens), P07949 [V804M] (P07949 whole entry V804M, the tested form may be a part): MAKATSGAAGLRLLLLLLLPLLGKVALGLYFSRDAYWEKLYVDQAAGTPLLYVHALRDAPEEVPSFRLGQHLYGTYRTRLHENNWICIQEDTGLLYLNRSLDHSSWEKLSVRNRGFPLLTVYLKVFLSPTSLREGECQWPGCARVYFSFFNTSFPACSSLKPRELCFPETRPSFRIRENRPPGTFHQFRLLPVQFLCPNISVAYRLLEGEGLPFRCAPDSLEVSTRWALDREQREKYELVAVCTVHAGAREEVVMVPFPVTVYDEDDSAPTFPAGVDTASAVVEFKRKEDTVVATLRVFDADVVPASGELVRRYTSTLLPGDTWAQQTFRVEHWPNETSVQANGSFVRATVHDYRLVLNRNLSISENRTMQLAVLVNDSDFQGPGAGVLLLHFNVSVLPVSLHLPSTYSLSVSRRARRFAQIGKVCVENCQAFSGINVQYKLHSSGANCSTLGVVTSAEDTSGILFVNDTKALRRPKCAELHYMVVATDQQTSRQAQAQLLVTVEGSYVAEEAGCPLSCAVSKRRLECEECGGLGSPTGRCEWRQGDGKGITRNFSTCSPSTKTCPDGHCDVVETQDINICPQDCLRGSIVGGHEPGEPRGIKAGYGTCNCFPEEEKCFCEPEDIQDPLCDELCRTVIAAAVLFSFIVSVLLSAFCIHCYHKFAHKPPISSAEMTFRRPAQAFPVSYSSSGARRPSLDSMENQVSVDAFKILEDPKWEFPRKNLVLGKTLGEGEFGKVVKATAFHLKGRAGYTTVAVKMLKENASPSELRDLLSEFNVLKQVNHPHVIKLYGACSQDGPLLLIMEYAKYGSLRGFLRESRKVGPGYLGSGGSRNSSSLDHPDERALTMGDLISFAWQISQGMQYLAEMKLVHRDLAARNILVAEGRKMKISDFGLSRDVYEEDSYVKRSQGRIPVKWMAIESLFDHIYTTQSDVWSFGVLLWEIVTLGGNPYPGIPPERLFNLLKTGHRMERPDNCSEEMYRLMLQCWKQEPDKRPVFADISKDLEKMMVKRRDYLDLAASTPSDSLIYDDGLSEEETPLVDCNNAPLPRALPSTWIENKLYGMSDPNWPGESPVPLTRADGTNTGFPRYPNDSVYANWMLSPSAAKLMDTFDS

With `Cc1ccc(C(=O)Nc2ccc(CN3CCN(C)CC3)c(C(F)(F)F)c2)cc1Oc1nc(-c2cccnc2)nc2[nH]ncc12`, the outcome with BaF3 was Active. The GI50 in assay [1] came out at 21 nM. Further, in assay [2], the Activity turned out to be 0.25%.
